Tests used:
Assay type in all cases: cell-based, human
[1] = test system: SF268; experiment: NCI sulforhodamine B growth inhibition, CNS cancer cells; settings: 48 h
Procedure: (§1) Inhibition of human cancer cell growth was assessed using the National Cancer Institute's standard sulforhodamine B assay as previously described.^19In summary, cells in a 5% fetal bovine serum/RPMI1640 medium were inoculated in 96-well plates and incubated for 24 hrs. Next, serial dilutions of the compounds were added. After 48 h, the plates were fixed with trichloroacetic acid, stained with sulforhodamine B, and read with an automated microplate reader. A growth inhibition of 50% (GI50 or the drug concentration causing a 50% reduction in the net protein increase) was calcd from optical density data with Immunosoft software. Normal cells were treated in identical conditions. Normal human prostate CRL-2221 (PZ—HPV-7) was grown in MEM 10% FBS and normal human breast MCF-10A in MEGM kit.

[2] = test system: BXPC-3; experiment: NCI sulforhodamine B growth inhibition, pancreas cancer cells; settings: BXPC3 pancreas, 48 h
Procedure: as §1

[3] = test system: KM20L2; experiment: NCI sulforhodamine B growth inhibition, colon cancer cells; settings: 48 h
Procedure: as §1

[4] = test system: NCI-H460; experiment: NCI sulforhodamine B growth inhibition, lung cancer cells; settings: 48 h
Procedure: as §1

[5] = test system: DU-145; experiment: NCI sulforhodamine B growth inhibition, prostate cancer cells; settings: DU145 prostate, 48 h
Procedure: as §1

[6] = test system: MCF-7; experiment: NCI sulforhodamine B growth inhibition, breast cancer cells; settings: MCF-7 breast, 48 h
Procedure: as §1

[7] = test system: mini panel of cancer cell lines; experiment: Growth inhibition across the mini panel of cancer cell lines; settings: mini panel of cancer cell lines (Table 1)
Procedure: as §1
The growth inhibition property of the silstatins and some intermediates were evaluated against a mini panel of cancer cell lines (Table 1).

CC(C)C[C@H]1OC(=O)[C@H](C(C)C)NC(=O)[C@H](C)OC(=O)[C@@H](C(C)C)NC(=O)[C@@H](CC(C)C)OC(=O)[C@H](C(C)C)NC(=O)[C@H](C)OC(=O)[C@@H](C(C)C)NC(=O)[C@@H](CC2CCCCC2)OC(=O)[C@H](Cc2ccc(OC(C)(C)C)cc2)NC(=O)[C@H](C)OC(=O)[C@@H](C(C)C)NC1=O [Silstatin 17b, Cyclo-{Tyr(tBu)-D-Hcha-D-Val-Lac-[Val-D-Hica-D-Val-Lac]2}]
Growth inhibition of human cancer cell lines GI50 [1]: 60 ng/mL
Growth inhibition of human cancer cell lines GI50 [2]: 90 ng/mL
Growth inhibition of human cancer cell lines GI50 [3]: 52 ng/mL
Growth inhibition of human cancer cell lines GI50 [4]: 120 ng/mL
Growth inhibition of human cancer cell lines GI50 [5]: 40 ng/mL
Growth inhibition of human cancer cell lines GI50 [6]: 32 ng/mL

CC(C)C[C@H]1OC(=O)[C@H](C(C)C)NC(=O)[C@H](C)OC(=O)[C@@H](C(C)C)NC(=O)[C@@H](CC(C)C)OC(=O)[C@H](C(C)C)NC(=O)[C@H](C)OC(=O)[C@@H](C(C)C)NC(=O)[C@@H](CC2CCCCC2)OC(=O)[C@H](Cc2ccc(O)cc2)NC(=O)[C@H](C)OC(=O)[C@@H](C(C)C)NC1=O [Silstatin 8 (18b), Cyclo-{Tyr-D-Hcha-D-Val-Lac-[Val-D-Hica-D-Val-Lac]2}]
Growth inhibition of human cancer cell lines GI50 [1]: 3 ng/mL
Growth inhibition of human cancer cell lines GI50 [2]: 6 ng/mL
Growth inhibition of human cancer cell lines GI50 [3]: 2.1 ng/mL
Growth inhibition of human cancer cell lines GI50 [4]: 4 ng/mL
Growth inhibition of human cancer cell lines GI50 [5]: 5.4 ng/mL
Growth inhibition of human cancer cell lines GI50 [6]: 1.1 ng/mL
Cancer cell growth inhibition, assessment in words [7]: rescuing the activity

CC(C)C[C@H]1OC(=O)[C@H](Cc2ccc(OC(C)(C)C)cc2)NC(=O)[C@H](C)OC(=O)[C@@H](C(C)C)NC(=O)[C@@H](CC(C)C)OC(=O)[C@H](C(C)C)NC(=O)[C@H](C)OC(=O)[C@@H](C(C)C)NC(=O)[C@@H](CC(C)C)OC(=O)[C@H](C(C)C)NC(=O)[C@H](C)OC(=O)[C@@H](C(C)C)NC1=O [Silstatin 7c, Cyclo-{Tyr(tBu)-D-Hica-D-Val-Lac-[Val-D-Hica-D-Val-Lac]2}]
Growth inhibition of human cancer cell lines GI50 [1]: 2.5 ng/mL
Growth inhibition of human cancer cell lines GI50 [2]: 30 ng/mL
Growth inhibition of human cancer cell lines GI50 [3]: 4.8 ng/mL
Growth inhibition of human cancer cell lines GI50 [4]: 29 ng/mL
Growth inhibition of human cancer cell lines GI50 [5]: 11 ng/mL
Growth inhibition of human cancer cell lines GI50 [6]: 4.2 ng/mL

CC(C)C[C@H]1OC(=O)[C@H](Cc2ccc(O)cc2)NC(=O)[C@H](C)OC(=O)[C@@H](C(C)C)NC(=O)[C@@H](CC(C)C)OC(=O)[C@H](C(C)C)NC(=O)[C@H](C)OC(=O)[C@@H](C(C)C)NC(=O)[C@@H](CC(C)C)OC(=O)[C@H](C(C)C)NC(=O)[C@H](C)OC(=O)[C@@H](C(C)C)NC1=O [Silstatin 3 (8b), Cyclo-{Tyr-D-Hica-D-Val-Lac-[Val-D-Hica-D-Val-Lac]2}]
Growth inhibition of human cancer cell lines GI50 [1]: 4 ng/mL
Growth inhibition of human cancer cell lines GI50 [2]: 5 ng/mL
Growth inhibition of human cancer cell lines GI50 [3]: 1.1 ng/mL
Growth inhibition of human cancer cell lines GI50 [4]: 3.7 ng/mL
Growth inhibition of human cancer cell lines GI50 [5]: 5.1 ng/mL
Growth inhibition of human cancer cell lines GI50 [6]: 1.6 ng/mL
Cancer cell growth inhibition, assessment in words [7]: somewhat decreased activity

CC(C)[C@@H]1NC(=O)[C@H](C)OC(=O)[C@@H](C(C)C)NC(=O)[C@@H](CC2CCCCC2)OC(=O)[C@H](C(C)C)NC(=O)[C@H](C)OC(=O)[C@@H](C(C)C)NC(=O)[C@@H](CC2CCCCC2)OC(=O)[C@H](Cc2ccc(O)cc2)NC(=O)[C@H](C)OC(=O)[C@@H](C(C)C)NC(=O)[C@@H](CC2CCCCC2)OC1=O [Silstatin 6 (15b), Cyclo-{Tyr-D-Hcha-D-Val-Lac-[Val-D-Hcha-D-Val-Lac]2}]
Growth inhibition of human cancer cell lines GI50 [1]: 50 ng/mL
Growth inhibition of human cancer cell lines GI50 [2]: 530 ng/mL
Growth inhibition of human cancer cell lines GI50 [3]: 90 ng/mL
Growth inhibition of human cancer cell lines GI50 [4]: 320 ng/mL
Growth inhibition of human cancer cell lines GI50 [5]: 220 ng/mL
Growth inhibition of human cancer cell lines GI50 [6]: 120 ng/mL
Cancer cell growth inhibition, assessment in words [7]: marked reduction of cancer cell growth inhibition capability

CC(C)[C@@H]1NC(=O)[C@H](C)OC(=O)[C@@H](C(C)C)NC(=O)[C@@H](CC2CCCCC2)OC(=O)[C@H]([C@@H](C)OC(C)(C)C)NC(=O)[C@H](C)OC(=O)[C@@H](C(C)C)NC(=O)[C@@H](CC2CCCCC2)OC(=O)[C@H](C(C)C)NC(=O)[C@H](C)OC(=O)[C@@H](C(C)C)NC(=O)[C@@H](CC2CCCCC2)OC1=O [Silstatin 14b, Cyclo-{Thr(tBu)-D-Hcha-D-Val-Lac-[Val-D-Hcha-D-Val-Lac]2}]
Growth inhibition of human cancer cell lines GI50 [1]: 75 ng/mL
Growth inhibition of human cancer cell lines GI50 [2]: 180 ng/mL
Growth inhibition of human cancer cell lines GI50 [3]: 80 ng/mL
Growth inhibition of human cancer cell lines GI50 [4]: 320 ng/mL
Growth inhibition of human cancer cell lines GI50 [5]: 120 ng/mL
Growth inhibition of human cancer cell lines GI50 [6]: 75 ng/mL

CC(C)[C@@H]1NC(=O)[C@H](C)OC(=O)[C@@H](C(C)C)NC(=O)[C@@H](CC2CCCCC2)OC(=O)[C@H](C(C)C)NC(=O)[C@H](C)OC(=O)[C@@H](C(C)C)NC(=O)[C@@H](CC2CCCCC2)OC(=O)[C@H](Cc2ccc(OC(C)(C)C)cc2)NC(=O)[C@H](C)OC(=O)[C@@H](C(C)C)NC(=O)[C@@H](CC2CCCCC2)OC1=O [Silstatin 14c, Cyclo-{Tyr(tBu)-D-Hcha-D-Val-Lac-[Val-D-Hcha-D-Val-Lac]2}]
Growth inhibition of human cancer cell lines GI50 [1]: >1000 ng/mL
Growth inhibition of human cancer cell lines GI50 [2]: >1000 ng/mL
Growth inhibition of human cancer cell lines GI50 [3]: >1000 ng/mL
Growth inhibition of human cancer cell lines GI50 [4]: >1000 ng/mL
Growth inhibition of human cancer cell lines GI50 [5]: >1000 ng/mL
Growth inhibition of human cancer cell lines GI50 [6]: >1000 ng/mL

CC(C)[C@@H]1NC(=O)[C@H](C)OC(=O)[C@@H](C(C)C)NC(=O)[C@@H](CC2CCCCC2)OC(=O)[C@H]([C@@H](C)O)NC(=O)[C@H](C)OC(=O)[C@@H](C(C)C)NC(=O)[C@@H](CC2CCCCC2)OC(=O)[C@H](C(C)C)NC(=O)[C@H](C)OC(=O)[C@@H](C(C)C)NC(=O)[C@@H](CC2CCCCC2)OC1=O [Silstatin 5 (15a), Cyclo-{Thr-D-Hcha-D-Val-Lac-[Val-D-Hcha-D-Val-Lac]2}]
Growth inhibition of human cancer cell lines GI50 [1]: 4.4 ng/mL
Growth inhibition of human cancer cell lines GI50 [2]: 30 ng/mL
Growth inhibition of human cancer cell lines GI50 [3]: 4.4 ng/mL
Growth inhibition of human cancer cell lines GI50 [4]: 21 ng/mL
Growth inhibition of human cancer cell lines GI50 [5]: 5 ng/mL
Growth inhibition of human cancer cell lines GI50 [6]: 3.1 ng/mL
Cancer cell growth inhibition, assessment in words [7]: very high inhibitory activity

CC(C)C[C@H]1OC(=O)[C@H](C(C)C)NC(=O)[C@H](C)OC(=O)[C@@H](C(C)C)NC(=O)[C@@H](CC2CCCCC2)OC(=O)[C@H]([C@@H](C)OC(C)(C)C)NC(=O)[C@H](C)OC(=O)[C@@H](C(C)C)NC(=O)[C@@H](CC(C)C)OC(=O)[C@H](C(C)C)NC(=O)[C@H](C)OC(=O)[C@@H](C(C)C)NC1=O [Silstatin 17a, Cyclo-{Thr(tBu)-D-Hcha-D-Val-Lac-[Val-D-Hica-D-Val-Lac]2}]
Growth inhibition of human cancer cell lines GI50 [1]: 4 ng/mL
Growth inhibition of human cancer cell lines GI50 [2]: 23 ng/mL
Growth inhibition of human cancer cell lines GI50 [3]: 2.4 ng/mL
Growth inhibition of human cancer cell lines GI50 [4]: 9 ng/mL
Growth inhibition of human cancer cell lines GI50 [5]: 7 ng/mL
Growth inhibition of human cancer cell lines GI50 [6]: 1 ng/mL

CC(C)C[C@H]1OC(=O)[C@H](C(C)C)NC(=O)[C@H](C)OC(=O)[C@@H](C(C)C)NC(=O)[C@@H](CC(C)C)OC(=O)[C@H]([C@@H](C)O)NC(=O)[C@H](C)OC(=O)[C@@H](C(C)C)NC(=O)[C@@H](CC(C)C)OC(=O)[C@H](C(C)C)NC(=O)[C@H](C)OC(=O)[C@@H](C(C)C)NC1=O [Silstatin 2 (8a), Cyclo-{Thr-D-Hica-D-Val-Lac-[Val-D-Hica-D-Val-Lac]2}]
Growth inhibition of human cancer cell lines GI50 [1]: 3.1 ng/mL
Growth inhibition of human cancer cell lines GI50 [2]: 4 ng/mL
Growth inhibition of human cancer cell lines GI50 [3]: 3.3 ng/mL
Growth inhibition of human cancer cell lines GI50 [4]: 3.2 ng/mL
Growth inhibition of human cancer cell lines GI50 [5]: 6 ng/mL
Growth inhibition of human cancer cell lines GI50 [6]: 2.2 ng/mL
Cancer cell growth inhibition, assessment in words [7]: somewhat decreased activity

CC(C)C[C@H]1OC(=O)[C@H](C(C)C)NC(=O)[C@H](C)OC(=O)[C@@H](C(C)C)NC(=O)[C@@H](CC(C)C)OC(=O)[C@H](C(C)C)NC(=O)[C@H](C)OC(=O)[C@@H](C(C)C)NC(=O)[C@@H](CC(C)C)OC(=O)[C@H](C(C)C)NC(=O)[C@H](C)OC(=O)[C@@H](C(C)C)NC1=O [Silstatin 1 (7a), Cyclo-[Val-D-Hica-D-Val-Lac]3]
Growth inhibition of human cancer cell lines GI50 [1]: 0.21 ng/mL
Growth inhibition of human cancer cell lines GI50 [2]: 0.8 ng/mL
Growth inhibition of human cancer cell lines GI50 [3]: 0.16 ng/mL
Growth inhibition of human cancer cell lines GI50 [4]: 0.7 ng/mL
Growth inhibition of human cancer cell lines GI50 [5]: 0.42 ng/mL
Growth inhibition of human cancer cell lines GI50 [6]: 0.11 ng/mL
Cancer cell growth inhibition, assessment in words [7]: did not affect its high potency

From patent US11174291B2, “Silstatin compounds” (Arizona Board of Regents on behalf of Arizona State …, priority 2015, dated 2021)
